Results: the supplement of paper PMC10307832

Key:
Assay in all cases: relative viability (nuclei count vs DMSO), 5 days (fraction); higher = more cells survive
Venetoclax + Pictilisib = compound: CC1(C)CCC(CN2CCN(c3ccc(C(=O)NS(=O)(=O)c4ccc(NCC5CCOCC5)c([N+](=O)[O-])c4)c(Oc4cnc5[nH]ccc5c4)c3)CC2)=C(c2ccc(Cl)cc2)C1 [Venetoclax] + CS(=O)(=O)N1CCN(Cc2cc3nc(-c4cccc5[nH]ncc45)nc(N4CCOCC4)c3s2)CC1 [Pictilisib] (partner 1 µM)
Outline: (§1)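 Each reported value is a median over duplicate plates. It expresses relative viability: treated-well nuclei count divided by vehicle-well nuclei count. Lung cancer cell lines in 1536-well plates were dosed by pin tool a day after seeding, alone with one drug or with a fixed anchor-drug dose plus five library-drug doses (not always all listed) in √10 steps, and nuclei were counted after 5 days.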

Venetoclax + AZD7762 = compound: CC1(C)CCC(CN2CCN(c3ccc(C(=O)NS(=O)(=O)c4ccc(NCC5CCOCC5)c([N+](=O)[O-])c4)c(Oc4cnc5[nH]ccc5c4)c3)CC2)=C(c2ccc(Cl)cc2)C1 [Venetoclax] + NC(=O)Nc1cc(-c2cccc(F)c2)sc1C(=O)N[C@H]1CCCNC1 [AZD7762] (partner 0.2 µM)
Outline: as §1

Venetoclax + Trametinib = compound: CC1(C)CCC(CN2CCN(c3ccc(C(=O)NS(=O)(=O)c4ccc(NCC5CCOCC5)c([N+](=O)[O-])c4)c(Oc4cnc5[nH]ccc5c4)c3)CC2)=C(c2ccc(Cl)cc2)C1 [Venetoclax] + CC(=O)Nc1cccc(-n2c(=O)n(C3CC3)c(=O)c3c(Nc4ccc(I)cc4F)n(C)c(=O)c(C)c32)c1 [Trametinib] (partner 0.02 µM)
Outline: as §1

Selumetinib + Phenformin = compound: Cn1cnc2c(F)c(Nc3ccc(Br)cc3Cl)c(C(=O)NOCCO)cc21 [Selumetinib] + N=C(N)NC(=N)NCCc1ccccc1 [Phenformin] (partner 250 µM)
Outline: as §1

Row | Cell Line | relative viability (Venetoclax + Pictilisib; first compound 0.01 µM) | relative viability (Venetoclax + Pictilisib; first compound 0.03162 µM) | relative viability (Venetoclax + Pictilisib; first compound 0.1 µM) | relative viability (Venetoclax + Pictilisib; first compound 0.3162 µM) | relative viability (Venetoclax + Pictilisib; first compound 1 µM) | relative viability (Venetoclax + AZD7762; first compound 0.01 µM) | relative viability (Venetoclax + AZD7762; first compound 0.03162 µM) | relative viability (Venetoclax + AZD7762; first compound 0.1 µM) | relative viability (Venetoclax + AZD7762; first compound 0.3162 µM) | relative viability (Venetoclax + AZD7762; first compound 1 µM) | relative viability (Venetoclax + Trametinib; first compound 0.01 µM) | relative viability (Venetoclax + Trametinib; first compound 0.03162 µM) | relative viability (Venetoclax + Trametinib; first compound 0.1 µM) | relative viability (Venetoclax + Trametinib; first compound 0.3162 µM) | relative viability (Venetoclax + Trametinib; first compound 1 µM) | relative viability (Selumetinib + Phenformin; first compound 0.02 µM) | relative viability (Selumetinib + Phenformin; first compound 0.06325 µM) | relative viability (Selumetinib + Phenformin; first compound 0.2 µM) | relative viability (Selumetinib + Phenformin; first compound 0.6325 µM)
1 | HCC-827 | 1.01 | 1.31 | 0.912 | 0.929 | 1.02 | 0.27 | 0.258 | 0.302 | 0.224 | 0.183 | 0.522 | 0.593 | 0.538 | 0.521 | 0.535 | 0.4 | 0.4 | 0.42 | 0.409
2 | LC-2-ad | 0.45 | 0.401 | 0.387 | 0.516 | 0.555 | 0.992 | 0.856 | 0.809 | 0.845 | 0.802 | 0.927 | 0.84 | 0.898 | 0.874 | 0.845 | 0.557 | 0.544 | 0.532 | 0.575
3 | NCI-H460 | 0.394 | 0.43 | 0.316 | 0.385 | 0.367 | 0.754 | 0.653 | 0.619 | 0.669 | 0.566 | 0.171 | 0.229 | 0.131 | 0.153 | 0.131 | 0.479 | 0.397 | 0.309 | 0.176
4 | NCI-H441 | 0.611 | 0.479 | 0.431 | 0.46 | 0.444 | 1.14 | 1.27 | 1.05 | 1.4 | 1.09 | 0.49 | 0.494 | 0.506 | 0.439 | 0.5 | 0.886 | 0.674 | 0.667 | 0.468
5 | LCLC-97TM1 | – | 0.264 | 0.173 | 0.273 | 0.21 | 0.323 | 0.26 | 0.263 | 0.266 | 0.25 | 0.217 | 0.18 | 0.148 | 0.167 | 0.185 | 0.44 | 0.43 | 0.387 | 0.399
6 | COR-L23 | 0.676 | 0.82 | 0.732 | 0.825 | 0.676 | – | – | – | – | – | 0.528 | 0.588 | 0.502 | 0.575 | 0.547 | 0.464 | 0.469 | 0.519 | 0.463
7 | NCI-H2228 | 0.321 | 0.416 | 0.395 | 0.358 | 0.494 | – | – | – | – | – | 0.715 | 0.608 | 0.567 | 0.453 | 0.464 | 0.254 | 0.284 | 0.219 | 0.21
8 | COR-L 105 | 0.409 | 0.526 | 0.367 | 0.406 | 0.468 | – | – | – | – | – | 0.333 | 0.499 | 0.386 | 0.496 | 0.413 | 0.355 | 0.321 | 0.331 | 0.297
9 | SW 1573 | 0.471 | 0.615 | 0.435 | 0.459 | 0.487 | – | – | – | – | – | 0.571 | 0.612 | 0.486 | 0.603 | 0.545 | 0.291 | 0.275 | 0.276 | 0.212
10 | NCI-H2023 | 0.259 | 0.234 | 0.222 | 0.23 | 0.227 | – | – | – | – | – | 0.526 | 0.552 | 0.558 | 0.485 | 0.477 | 0.373 | 0.399 | 0.381 | 0.341
11 | NCI-H661 | 0.466 | 0.446 | 0.455 | 0.415 | 0.347 | – | – | – | – | – | 0.528 | 0.606 | 0.538 | 0.525 | 0.532 | 0.261 | 0.291 | 0.272 | 0.246
12 | NCI-H522 | – | – | – | – | – | 1.01 | 0.769 | 0.85 | 0.923 | 0.689 | 0.716 | 0.747 | 0.674 | 0.728 | 0.655 | 0.641 | 0.556 | 0.635 | 0.609
13 | NCI-H1648 | – | – | – | – | – | – | 0.69 | 0.649 | 0.758 | 0.527 | – | 0.628 | 0.358 | 0.427 | 0.53 | – | – | – | –
14 | SK-MES-1 | 0.345 | 0.398 | 0.315 | 0.334 | 0.349 | – | – | – | – | – | 0.615 | 0.636 | 0.536 | 0.526 | 0.554 | 0.667 | 0.599 | 0.637 | 0.462
15 | NCI-H1650 | 0.531 | 0.713 | – | 0.723 | 0.622 | – | – | – | – | – | 0.539 | 0.581 | 0.609 | 0.485 | 0.529 | 0.424 | 0.371 | 0.444 | 0.35
16 | NCI-H2342 | – | – | – | – | – | 0.734 | 0.75 | 0.491 | 0.388 | 0.53 | 0.77 | 0.762 | 0.979 | 0.839 | 0.819 | 0.623 | 0.618 | 0.564 | 0.722
17 | NCI-H1299 | 0.869 | 0.874 | 0.637 | 0.769 | 0.67 | – | – | – | – | – | – | – | – | – | – | – | – | – | –
18 | SW 900 | – | – | – | – | – | 0.538 | 0.696 | 0.59 | 0.715 | 0.668 | 0.853 | 0.711 | 0.824 | 0.761 | 0.657 | 0.603 | 0.573 | 0.416 | 0.569
19 | A549 | 0.48 | 0.542 | 0.564 | 0.493 | 0.482 | – | – | – | – | – | – | – | – | – | – | 0.132 | 0.14 | 0.143 | 0.0906
20 | ABC-1 | 0.786 | 0.778 | 0.759 | 0.71 | 0.699 | 0.631 | 0.955 | 0.929 | 0.888 | 0.878 | – | – | – | – | – | 0.228 | 0.231 | 0.234 | 0.25
21 | NCI-H520 | 0.304 | 0.351 | 0.283 | 0.257 | 0.286 | – | – | – | – | – | 0.58 | 0.823 | – | 0.613 | 0.594 | 0.616 | 0.659 | 0.671 | 0.784
